Measurements published in patent US9273057B2 (Bristol-Myers Squibb Company, priority 2012, dated 2016).

Molecular target: CK2A1 (CK2α/β) (Homo sapiens, UniProt P68400)
Assay: CK2 kinase assay, CK2A1 (CK2α/β)
Assay type: biochemical
Conditions: Table A; read-out: CK2A1 (CK2α/β) (IC50)

Chain of CK2A1 (CK2α/β) (P68400 whole entry, species assumed): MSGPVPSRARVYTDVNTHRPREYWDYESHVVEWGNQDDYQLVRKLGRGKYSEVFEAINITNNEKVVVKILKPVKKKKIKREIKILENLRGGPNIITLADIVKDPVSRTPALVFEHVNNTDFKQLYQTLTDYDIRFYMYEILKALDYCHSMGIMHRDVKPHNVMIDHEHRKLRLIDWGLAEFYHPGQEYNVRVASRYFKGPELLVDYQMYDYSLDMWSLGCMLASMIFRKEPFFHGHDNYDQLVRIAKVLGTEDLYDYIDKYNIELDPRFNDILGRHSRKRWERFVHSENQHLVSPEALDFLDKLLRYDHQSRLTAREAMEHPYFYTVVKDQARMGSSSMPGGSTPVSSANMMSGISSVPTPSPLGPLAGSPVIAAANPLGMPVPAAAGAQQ
Chain of CK2A1 (CK2α/β) (P67870 whole entry partner, species assumed): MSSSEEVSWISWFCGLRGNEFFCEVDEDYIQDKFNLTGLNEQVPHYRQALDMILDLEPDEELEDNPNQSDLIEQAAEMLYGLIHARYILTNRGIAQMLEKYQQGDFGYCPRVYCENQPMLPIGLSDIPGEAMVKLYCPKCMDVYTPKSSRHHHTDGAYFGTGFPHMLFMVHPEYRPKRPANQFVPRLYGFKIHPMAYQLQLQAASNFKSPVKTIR

IC50 [nM] | SMILES
1.04 | N#CCC(=O)N1CCC(c2cc(C#N)cc(Nc3nc(NC4CC4)c4ncc(C#N)n4n3)c2Cl)CC1 [Example 230, 2-((2-chloro-5-cyano-3-(1-(cyanoacetyl)-4-piperidinyl)phenyl)amino)-4-(cyclopropylamino)imidazo[2,1-f][1,2,4]triazine-7-carbonitrile]
3.86 | CC(C)(C)CC(=O)N1CCC(c2cc(C#N)cc(Nc3nc(NC4CC4)c4ncc(C#N)n4n3)c2Cl)CC1 [Example 235, 2-((2-chloro-5-cyano-3-(1-(3,3-dimethylbutanoyl)-4-piperidinyl)phenyl)amino)-4-(cyclopropylamino)imidazo[2,1-f][1,2,4]triazine-7-carbonitrile]
0.41 | N#Cc1cc(Nc2nc(NC3CC3)c3ncc(C#N)n3n2)c(Cl)c(C2CCN(C(=O)CC(F)(F)F)CC2)c1 [Example 237, 2-((2-chloro-5-cyano-3-(1-(3,3,3-trifIuoropropanoyl)-4-piperidinyl)phenyl)amino)-4-(cyclopropylamino)imidazo[2,1-f][1,2,4]triazine-7-carbonitrile]
0.59 | C[C@@H](N)C(=O)N1CCC(c2cc(C#N)cc(Nc3nc(NC4CC4)c4ncc(C#N)n4n3)c2Cl)CC1 [Example 241, 2-((3-(1-D-alanyl-4-piperidinyl)-2-chloro-5-cyanophenyl)amino)-4-(cyclopropylamino)imidazo[2,1-f][1,2,4]triazine-7-carbonitrile]

The next lines start with the compound.

SMILES | IC50 [nM]
CC(C)(O)C(=O)N1CCC(c2cc(C#N)cc(Nc3nc(NC4CC4)c4ncc(C#N)n4n3)c2Cl)CC1 [Example 231, 2-((2-chloro-5-cyano-3-(1-(2-hydroxy-2-methylpropanoyl)-4-piperidinyl)phenyl)amino)-4-(cyclopropylamino)imidazo[2,1-f][1,2,4]triazine-7-carbonitrile] | 0.45
N#Cc1cc(Nc2nc(NC3CC3)c3ncc(C#N)n3n2)c(Cl)c(C2CCN(C(=O)C3(O)CC3)CC2)c1 [Example 232, 2-((2-chloro-5-cyano-3-(1-((1-hydroxycyclopropyl)carbonyl)-4-piperidinyl)phenyl)amino)-4-(cyclopropylamino)imidazo[2,1-f][1,2,4]triazine-7-carbonitrile] | 0.62
CC1(C(=O)N2CCC(c3cc(C#N)cc(Nc4nc(NC5CC5)c5ncc(C#N)n5n4)c3Cl)CC2)COC1 [Example 233, 2-((2-chloro-5-cyano-3-(1-((3-methyl-3-oxetanyl)carbonyl)-4-piperidinyl)phenyl)amino)-4-(cyclopropylamino)imidazo[2,1-f][1,2,4]triazine-7-carbonitrile] | 0.58
CC(C)(C)C(=O)N1CCC(c2cc(C#N)cc(Nc3nc(NC4CC4)c4ncc(C#N)n4n3)c2Cl)CC1 [Example 234, 2-((2-chloro-5-cyano-3-(1-(2,2-dimethylpropanoyl)-4-piperidinyl)phenyl)amino)-4-(cyclopropylamino)imidazo[2,1-f][1,2,4]triazine-7-carbonitrile] | 1.6
N#Cc1cc(Nc2nc(NC3CC3)c3ncc(C#N)n3n2)c(Cl)c(C2CCN(C(=O)C3CC3)CC2)c1 [Example 236, 2-((2-chloro-5-cyano-3-(1-(cyclopropylcarbonyl)-4-piperidinyl)phenyl)amino)-4-(cyclopropylamino)imidazo[2,1-f][1,2,4]triazine-7-carbonitrile] | 0.78
CC(C)(N)C(=O)N1CCC(c2cc(C#N)cc(Nc3nc(NC4CC4)c4ncc(C#N)n4n3)c2Cl)CC1 [Example 239, 2-((2-chloro-5-cyano-3-(1-(2-methylalanyl)-4-piperidinyl)phenyl)amino)-4-(cyclopropylamino)imidazo[2,1-f][1,2,4]triazine-7-carbonitrile] | 0.49
C[C@H](N)C(=O)N1CCC(c2cc(C#N)cc(Nc3nc(NC4CC4)c4ncc(C#N)n4n3)c2Cl)CC1 [Example 240, 2-((3-(1-L-alanyl-4-piperidinyl)-2-chloro-5-cyanophenyl)amino)-4-(cyclopropylamino)imidazo[2,1-f][1,2,4]triazine-7-carbonitrile] | 0.47
